# Measured values: patent US20200046703A1, “COMPOSITIONS AND METHODS FOR TREATMENT OF THE SIDE-EFFECTS ASSOCIATED WITH ADMINISTRATION OF THERAPEUTIC AGENTS” (ASYMMETRIC THERAPEUTICS, LLC, priority 2018, published 2020)
# Legend:
# [1] = system: proliferating HGEP cells; test: Proliferating HGEP cell viability with/without 5-FU; format: cell-based, human; settings: for relative cell viability (AVG): 120 hours
# Protocol: In one set of experiments, the results of which are shown in Table 1, proliferating HGEP cells, commonly used to assess oral mucosal toxicity, were exposed to the clinically-relevant dose of 10 μM of 5-FU and different concentrations of oxypurinol, either alone or with different concentrations of adenine or uracil, using standard tissue culture methods and incubated at 37° C. Oxypurinol concentrations of 0.03 mM, 0.1 mM, and 0.3 mM were tested. Adenine and uracil concentrations of 0.1 mM and 0.3 mM were tested. The relative viability of the cells was determined after 120 hours.
# [2] = system: confluent HPEK cells; test: Confluent HPEK cell viability with/without 5-FU; format: cell-based, human; settings: for relative cell viability (AVG): 120 hours; for Relative Protection against 5-FU toxicity / Relative Growth in the presence of 5-FU: HPEK confluent cells; for Relative Protection against 5-FU toxicity: fraction of viability loss prevented; for Relative Growth in the presence of 5-FU: viability with 5-FU divided by viability without 5-FU
# Protocol: Oxypurinol and allopurinol concentrations of 0.3 mM, 1.0 mM, and 3.0 mM, which are ten times higher than those used in the first set of experiments, were tested. An adenine concentration of 0.3 mM, which was the higher concentration used in the first set of experiments, was tested. The relative viability of the cells was determined after 120 hours.
# [3] = system: proliferating HPEK cells; test: Proliferating HPEK cell viability with/without 5-FU; format: cell-based, human; settings: for relative cell viability (AVG): 120 hours; for Relative Protection against 5-FU toxicity / Relative Growth in the presence of 5-FU: HPEK proliferating cells; for Relative Protection against 5-FU toxicity: fraction of viability loss prevented; for Relative Growth in the presence of 5-FU: viability with 5-FU divided by viability without 5-FU
# Protocol: In another set of experiments, the results of which are shown in Table 2, proliferating HPEK cells, commonly used to assess skin tissue toxicity, were exposed to the clinically-relevant dose of 10 μM of 5-FU and different concentrations of oxypurinol, either alone or with different concentrations of adenine or uracil, using standard tissue culture methods and incubated at 37° C. Oxypurinol concentrations of 0.03 mM, 0.1 mM, and 0.3 mM were tested. Adenine and uracil concentrations of 0.1 mM and 0.3 mM were tested. The relative viability of the cells was determined after 120 hours.
# [4] = Solubility of oxypurinol; format: physicochemical; settings: in vitro; in the protective formulation; read-out: maximum in vitro solubility / upper limit of solubility
# [5] = system: marrow cells; settings: about a 30-fold excess; in patients; cited from earlier work
# [6] = system: confluent NHEK cells; test: Confluent NHEK cell viability with/without 5-FU; format: cell-based, human; settings: for relative cell viability (AVG): 120 hours; for Relative Protection against 5-FU toxicity: fraction of viability loss prevented
# Protocol: In yet another set of experiments, the results of which are shown in Table 4, confluent NHEK cells were exposed to the clinically-relevant dose of 10 μM of 5-FU and different concentrations of sodium hydroxide, oxypurinol, or allopurinol using standard tissue culture methods and incubated at 37° C. Sodium hydroxide concentrations of 1 mM, 2 mM, 3 mM, and 4 mM were tested. Oxypurinol and allopurinol concentrations of 0.1 mM, 0.3 mM, 1.0 mM, and 3.0 mM were tested, both in the presence and in the absence of 10 μM of 5-FU. The relative viability of the cells was determined after 120 hours. The sodium hydroxide trials were only performed to serve as a control.
# [7] = concentrations of 0.1 mM and 0.3 mM
# [8] = 0.3 mM, with 5-FU 10 μM, listed as oxypurinol
# [9] = 1.0 mM, with 5-FU 10 μM, listed as oxypurinol
# [10] = 3.0 mM, with 5-FU 10 μM, listed as oxypurinol
compound,measurement,setting,value
"Nc1ncnc2nc[nH]c12 [Adenine, adenine, reference compound]",relative cell viability (AVG),"[1]; 0.1 mM, with 5-FU 10 μM",0.7549
same,relative cell viability (AVG),"[1]; 0.3 mM, with 5-FU 10 μM",0.6389
same,relative cell viability (AVG),"[2]; 0.3 mM, no 5-FU",1.3784
same,relative cell viability (AVG),"[2]; 0.3 mM, with 5-FU 10 μM",0.7456
same,relative cell viability (AVG),"[3]; 0.1 mM, with 5-FU 10 μM",0.6214
same,relative cell viability (AVG),"[3]; 0.3 mM, with 5-FU 10 μM",0.5985
"O=c1nc2[nH][nH]cc-2c(=O)[nH]1 [Oxypurinol, oxypurinol]",solubility,[4],~3000 µM
same,protection of marrow cells from 5-FU toxicity,[5],completely protect marrow cells from 5-FU toxicity
same,relative cell viability (AVG),"[1]; 0.03 mM, no 5-FU",0.8792
same,relative cell viability (AVG),"[1]; 0.03 mM, with 5-FU 10 μM",0.6441
same,relative cell viability (AVG),"[1]; 0.1 mM, no 5-FU",0.7134
same,relative cell viability (AVG),"[1]; 0.1 mM, with 5-FU 10 μM",0.7540
same,relative cell viability (AVG),"[1]; 0.3 mM, no 5-FU",0.6367
same,relative cell viability (AVG),"[1]; 0.3 mM, with 5-FU 10 μM",0.8925
same,effect on cell viability in the absence of 5-FU,[1]; 0.03 to 0.3 mM,negative effect
same,effect on cell viability in the presence of 5-FU,[1]; [7],protective effect
same,relative cell viability (AVG),"[2]; 0.3 mM, no 5-FU",1.0183
same,relative cell viability (AVG),"[2]; 0.3 mM, with 5-FU 10 μM",0.7226
same,relative cell viability (AVG),[2]; [8],0.72
same,relative cell viability (AVG),"[2]; 1.0 mM, no 5-FU",1.0706
same,relative cell viability (AVG),"[2]; 1.0 mM, no 5-FU, listed as oxypurinol",1.07
same,relative cell viability (AVG),"[2]; 1.0 mM, with 5-FU 10 μM",0.7509
same,relative cell viability (AVG),[2]; [9],0.75
same,relative cell viability (AVG),"[2]; 3.0 mM, no 5-FU",0.8351
same,relative cell viability (AVG),"[2]; 3.0 mM, no 5-FU, listed as oxypurinol",0.835
same,relative cell viability (AVG),"[2]; 3.0 mM, with 5-FU 10 μM",0.8147
same,relative cell viability (AVG),[2]; [10],0.81
same,protection from 5-FU toxicity compared with allopurinol,"[2]; HPEK cells, FIG. 1, across the range of tested concentrations",significantly better
same,Relative Protection against 5-FU toxicity,[2]; 0.3 mM,0.2249
same,Relative Growth in the presence of 5-FU,[2]; 0.3 mM,0.7096
same,Relative Protection against 5-FU toxicity,[2]; 1.0 mM,0.3039
same,Relative Growth in the presence of 5-FU,[2]; 1.0 mM,0.7013
same,Relative Protection against 5-FU toxicity,[2]; 3.0 mM,0.4822
same,Relative Growth in the presence of 5-FU,[2]; 3.0 mM,0.9755
same,oxypurinol toxicity,"[2]; HPEK, up to about 3 mM",no evidence of oxypurinol toxicity
same,effect on cell viability in the presence of 5-FU,[2]; concentration range of 0.3 mM to 3.0 mM,protective effect
same,"preservation of growth, with versus without 5-FU","[2]; oxypurinol at 3 mM, 5-FU 10 μM",97.5%
same,relative cell viability (AVG),"[3]; 0.03 mM, no 5-FU",1.0763
same,relative cell viability (AVG),"[3]; 0.03 mM, with 5-FU 10 μM",0.6903
same,relative cell viability (AVG),"[3]; 0.1 mM, no 5-FU",0.7961
same,relative cell viability (AVG),"[3]; 0.1 mM, with 5-FU 10 μM",0.7961
same,relative cell viability (AVG),"[3]; 0.3 mM, no 5-FU",1.0201
same,relative cell viability (AVG),"[3]; 0.3 mM, with 5-FU 10 μM",0.8635
same,Relative Protection against 5-FU toxicity,[3]; 0.03 mM,0.1133
same,Relative Growth in the presence of 5-FU,[3]; 0.03 mM,0.6414
same,Relative Protection against 5-FU toxicity,[3]; 0.1 mM,0.4163
same,Relative Growth in the presence of 5-FU,[3]; 0.1 mM,1.0000
same,Relative Protection against 5-FU toxicity,[3]; 0.3 mM,0.6092
same,Relative Growth in the presence of 5-FU,[3]; 0.3 mM,0.8465
same,effect on cell viability in the presence of 5-FU,[3]; [7],protective effect
same,effect on cell viability in the absence of 5-FU,[3]; range of 0.03 mM to 0.3 mM,minimal effect
same,effect on cell viability in the presence of 5-FU,[6]; 0.1 mM to 3.0 mM,protective effect
same,relative cell viability (AVG),"[6]; 0.1 mM, no 5-FU",0.8884
same,relative cell viability (AVG),"[6]; 0.1 mM, with 5-FU 10 μM",0.5818
same,relative cell viability (AVG),"[6]; 0.1 mM, with 5-FU 10 μM, listed as oxypurinol",0.58
same,relative cell viability (AVG),"[6]; 0.3 mM, no 5-FU",0.9059
same,relative cell viability (AVG),"[6]; 0.3 mM, with 5-FU 10 μM",0.5881
same,relative cell viability (AVG),[6]; [8],0.59
same,relative cell viability (AVG),"[6]; 1.0 mM, no 5-FU",0.9580
same,relative cell viability (AVG),"[6]; 1.0 mM, with 5-FU 10 μM",0.5965
same,relative cell viability (AVG),[6]; [9],0.60
same,Relative Growth in the presence of 5-FU,"[6]; 3.0 mM, NHEK, FIG. 2",over 73%
same,relative cell viability (AVG),"[6]; 3.0 mM, no 5-FU",0.9784
same,relative cell viability (AVG),"[6]; 3.0 mM, with 5-FU 10 μM",0.7165
same,relative cell viability (AVG),[6]; [10],0.72
same,protection from 5-FU toxicity compared with allopurinol,"[6]; NHEK cells, FIG. 2, across the range of tested concentrations",significantly better
same,Relative Protection against 5-FU toxicity,"[6]; NHEK, 0.1 mM",0.2834
same,Relative Growth in the presence of 5-FU,"[6]; NHEK, 0.1 mM, viability with 5-FU divided by viability without 5-FU",0.6549
same,Relative Protection against 5-FU toxicity,"[6]; NHEK, 0.3 mM",0.2941
same,Relative Growth in the presence of 5-FU,"[6]; NHEK, 0.3 mM, viability with 5-FU divided by viability without 5-FU",0.6492
same,Relative Protection against 5-FU toxicity,"[6]; NHEK, 1.0 mM",0.3085
same,Relative Growth in the presence of 5-FU,"[6]; NHEK, 1.0 mM, viability with 5-FU divided by viability without 5-FU",0.6226
same,Relative Protection against 5-FU toxicity,"[6]; NHEK, 3.0 mM",0.5142
same,Relative Growth in the presence of 5-FU,"[6]; NHEK, 3.0 mM, viability with 5-FU divided by viability without 5-FU",0.7323
same,oxypurinol toxicity,"[6]; NHEK, up to about 3 mM",no evidence of oxypurinol toxicity
same,effect on cell viability in the absence of 5-FU,[6]; range of 0.1 mM to 3.0 mM,small negative effect
"O=c1cc[nH]c(=O)[nH]1 [Uracil, uracil, reference compound]",relative cell viability (AVG),"[1]; 0.1 mM, with 5-FU 10 μM",0.6060
same,relative cell viability (AVG),"[1]; 0.3 mM, with 5-FU 10 μM",0.5182
same,relative cell viability (AVG),"[2]; 0.3 mM, no 5-FU",1.3781
same,relative cell viability (AVG),"[2]; 0.3 mM, with 5-FU 10 μM",0.6482
same,relative cell viability (AVG),"[3]; 0.1 mM, with 5-FU 10 μM",0.6479
same,relative cell viability (AVG),"[3]; 0.3 mM, with 5-FU 10 μM",0.6350
